Test results: patent US20250154105A1, “POLYCYCLIC COMPOUND AND USE THEREOF” (TYK MEDICINES, INC., priority 2021, published 2025)

How the values were obtained:
YAP-TEAD = YAP-TEAD inhibitor activity by Nano luciferase method (8xGTiiC-nLuc reporter in 293T cells); assay type: cell-based; conditions: Homo sapiens, HEK-293T, 48 hours incubation, read-out: Nano-luciferase detection (IC50)
Description: EXAMPLE 2: YAP-TEAD INHIBITOR ACTIVITY WAS DETECTED BY NANO LUCIFERASE METHOD
(1) Experimental materials and equipments: 293T cells were purchased from NANJING COBIOER BIOSCIENCES CO., LTD. DMEM medium (High sugar, no phenol red, Bio-Channel), DMSO (dimethyl sulfoxide), Lipo6000™ transfection reagent (Beyotime), pGL3B-8xGTiiC-nLuc-CMV-fLuc plasmid, 0.25% EDTA-Tripsin (trypsin digest), 1×PBS (phosphate buffer, PH7.2), 96-well white cell culture plate (PerkinElmer), fetal bovine serum (FBS), 10,000 U/mL penicillin-G/streptomycin, high-speed freezing centrifuge (EPPENDORF 5810R), 37° C. CO2 incubator, Vi-cell® Cell Counter, Envision Microplate Reader (PerkinElmer).
The revived 293T cells were inoculated into a 10 cm culture dish and placed in an incubator with 5% CO2, and cultured at constant temperature of 37° C. To ensure transfection efficiency, cells at logarithmic phase (cell density of approximately 50%-70%) should be used.
On the day before transfection, cells at the logarithmic phase were digested with Trypsin-EDTA, and culture medium was added to terminate digestion. The cell suspension was prepared by blowing and mixing using a pipette.
Cell concentration was measured using Vi-cell, and the cell suspension was diluted to a suspension of 5*10^^5 cells per milliliter. After preparing the cell suspension, the suspension was gently mixed. 10 ml of liquid was added to a 10 cm culture dish. In this way, the number of cells in each 10 cm culture dish was 5*10^^6. The cells were incubated at a constant temperature of 37° C. for 1 day in an incubator with 5% CO2.
Two clean and sterile centrifuge tubes were taken and added with 750 μL opti-MEM Medium without antibiotics and serum, respectively. Then one tube was added with 15 μg Plasmid (pGL3B-8xGTiiC-nLuc-CMV-fLuc), and gently blew and mixed well using a pipette; the other tube was added with Lipo6000 transfection reagent, and gently blew and mixed using a pipette. After standing at room temperature for 5 minutes, the culture solution containing DNA was added gently to the culture solution containing Lipo6000 transfection reagent, and mixed well by gently inverting the centrifuge tube, then standing at room temperature for 5 minutes.
The above mixture was added evenly to a 10 cm culture dish and replaced with fresh complete culture medium after 6 hours of cultivation.
After transfection for 1 day, cells were digested with Trypsin EDTA, and culture medium was added to terminate the digestion. The cell suspension was prepared by blowing and mixing using a pipette.
Cell concentration was measured using Vi-cell, and the cell suspension was diluted to a suspension of 20000 cells per milliliter.
After preparing the cell suspension, the suspension was gently mixed, and added to 96-well plate with 100 μL per well. Thus, the density of the cells to be tested is 2000 cells per well.
The inoculated cell culture plate was placed in the incubator for cultivation, and after about 24 hour, compounds with concentration gradient were added.
10 mM compound stock solution was diluted with culture medium to 50 μM. Compound solution of 50 μM was added to the third column of the deep well plate, 216 μL of culture medium containing 0.5% DMSO was added to the fourth to eleventh columns, successively.
Gradient dilution: taking 100 μL of solution from the third column and adding the solution to the fourth column and mixing well; then taking 100 µL of solution from the fourth column again and adding the solution to the fifth column, repeating this operation until the eleventh column.
Taking 25 μL of compound solution from the deep well plate and adding it to a 96-well culture plate using a multi-channel pipette. Repeating four times on the 96 well plate for each compound. Finally, a concentration gradient of 1:3.16 was formed in the 96-well plate with a maximum concentration of 10,000 nM. The • (5) Addition of Nano Luciferase Detection Reagent and Read […]

[1] = test system: human pleural mesothelioma cells NCI-H226; experiment: Cell anti-proliferation experiment (CCK8), NCI-H226; assay type: cell-based
Description: TEST EXAMPLE 1 CELL ANTI-PROLIFERATION EXPERIMENT
Determination of proliferation inhibition of YAP-TEAD inhibitor compounds on human pleural mesothelioma cells NCI-H226
Experimental materials and equipments: Human pleural mesothelioma cells NCI-H226 was purchased from NANJING COBIOER BIOSCIENCES CO., LTD. RPMI-1640 medium (Bio-Channel), DMSO (dimethyl sulfoxide), CCK8 (WST-8) Cell Assay Kit (Beyotime), 0.25% EDTA-Tripsin (trypsin digest), 1×PBS (phosphate buffer, PH7.2), 96-well plate (Corning), fetal bovine serum (FBS), 10,000 U/mL penicillin-G/streptomycin, high-speed freezing centrifuge (EPPENDORF 5810R), enzyme-linked immunosorbent assay (Tecan Spark).
1. Cell plating • A) Tumor cells were cultured to 80-90% density in RPMI-1640 (containing 10% FBS and 100 U/mL penicillin-G/streptomycin) under the condition of 37° C., 5% CO2 and saturated humidity. • B) The culture medium was removed from the 10 cm culture dish. • C) Cells were washed with 10 ml 1×PBS. • D) 4 ml of 0.25% EDTA-Tripsin was added to digest pancreatin for 5 minutes in an incubator at 37° C. and 5% CO2. Then the mixture was transferred to a 15 ml centrifuge tube, and centrifuged for 5 minutes at 200 g. The supernatant was discarded to obtain cell precipitation. • E) The cell precipitation was resuspended with 4 ml of […], counted and adjusted to 10,000 cells/ml. • F) The cell suspension was added to a 96-well plate with a volume of 100 μL per well and cultured overnight in an incubator at 37° C. and 5% CO2.
• Compound dilution • A) Preparation of gradient dilution solutions of the tested compounds: the tested compounds was configured to 1 mM stock solution. Then […] of stock solution was dissolved in 1.5 ml of DMSO-free culture solution, and then 3-fold continuous gradient dilution with 0.1% DMSO culture solution was performed to get a total of 9 concentrations. The diluted concentrations of the compound were as follows: 333.33 nM, 111.11 nM, 37.03 nM, 12.35 nM, 4.15 nM, 1.37 nM, 0.46 nM, 0.15 nM • B) After full mixing, 100 μL of culture compound solution was taken to replace the culture solution in the cell culture plate, with 4 duplicated wells at each concentration; • C) The cells were transferred to the incubator to incubate for 3 days.
• A) the cell culture plate was taken out and added with 10 μl of CCK-8 (WST-8) solution per well in the biosafety cabinet; • B) The cell culture plate was put back into the incubator and continued to incubate for 3 hours; • C) 450 nm wavelength was selected to measure absorbance value on TECAN enzyme linked immunosorbent assay detector.
The following formula was used to calculate the cell viability (% Cell Viability); • Cell Viability (%)=[A(Drug-added)-A(Blank)]/[A(0 Drug-added)-A(blank)][…] • A (Drug-added): The absorbance of wells containing cells, CCK8 solution, and drug solution. • A (Blank): The absorbance of wells containing culture medium and CCK8 solution, but without cells. • A (0 Drug-added): The absorbance of wells containing cells, CCK8 solution, but without drug solution. • Cell viability: Cell proliferation viability or cytotoxicity viability was determined by the IC50 value obtained by curve fitting using GraphPad Prism 8 software.

Structure (SMILES)	IC50 (YAP-TEAD) [nM]	IC50 [1] [nM]
CNS(=O)(=O)c1ccc2c(c1)c1c(cnn1C)c(=O)n2-c1ccc(C(F)(F)F)cc1 [Example T-195]	1000 to 5000	1000 to 5000
C[C@H](NC(=O)c1ccc2c(c1)c1nn(C)cc1c(=O)n2-c1ccc(C(F)(F)F)cc1)c1ccc(Cl)cn1 [Example T-130]	1000 to 5000	1000 to 5000
C[C@H](C(=O)Nc1ccc2c(c1)c1nn(C)cc1c(=O)n2-c1ccc(C(F)(F)F)cc1)c1ccccn1 [Example T-169]	1000 to 5000	1000 to 5000
CNC[C@H](C)NC(=O)c1ccc2c(c1)c1nn(C)cc1c(=O)n2-c1ccc(C(F)(F)F)cc1 [Example T-120]	1000 to 5000	1000 to 5000
Cn1cc2c(=O)n(-c3ccc(C(F)(F)F)cc3)c3ccc(NC(=O)CCCCl)cc3c2n1 [Example T-173]	1000 to 5000	1000 to 5000
C[C@H](NC(=O)c1ccc2c(c1)-c1cscc1CN2C1CCC(C(F)(F)F)CC1)c1ccccn1 (some centres unmarked) [Example T-269]	≤ 1000	≤ 1000
Cc1ccc(S(=O)(=O)Nc2ccc3c(c2)c2nn(C)cc2c(=O)n3-c2ccc(C(F)(F)F)cc2)cc1 [Example T-189]	≤ 1000	≤ 1000
Cn1cc2c(=O)n(-c3ccc(C(F)(F)F)cc3)c3ccc(NC(=O)/C=C/CN4CCCC4)cc3c2n1 [Example T-179]	≤ 1000	≤ 1000
C[C@H](NC(=O)c1ccc2c(c1)c1scnc1c(=O)n2-c1ccc(C(F)(F)F)cc1)c1ccccn1 [Example T-331]	≤ 1000	≤ 1000
C[C@H](NC(=O)c1ccc2c(c1)c1nnccc1c(=O)n2-c1ccc(C(F)(F)F)cc1)c1ccccn1 [Example T-334]	≤ 1000	≤ 1000
CNS(=O)(=O)c1ccc2c(c1)c1ncn(C)c1c(=O)n2Cc1ccc(C(F)(F)F)cc1 [Example T-48]	≤ 1000	≤ 1000
Cc1cc2cc(C(=O)N[C@@H](C)c3ccccc3)cnc2n(-c2ccc(C(F)(F)F)cc2)c1=O [Example T-462]	≤ 1000	≤ 1000
C[C@H](NC(=O)c1cnc2c(ccc(=O)n2-c2ccc(C(F)(F)F)cc2)c1)c1cccc(N)n1 [Example T-455]	≤ 1000	≤ 1000
C[C@H](NC(=O)c1ccc2c(c1)c1nn(C)cc1c(=O)n2-c1ccc(C(F)(F)F)cc1)c1cc(Cl)ccn1 [Example T-128]	≤ 1000	≤ 1000
C=CC(=O)Nc1ccc2c(c1)c1nn(C)cc1c(=O)n2-c1ccc(OC(F)(F)F)cc1 [Example T-232]	≤ 1000	≤ 1000
CNS(=O)(=O)c1ccc2c(c1)-c1nn(C)cc1CC(=O)N2c1ccc(C(F)(F)F)cc1 [Example T-51]	≤ 1000	≤ 1000
C[C@H](NC(=O)c1ccc2c(c1)c1c(c(=O)n2-c2ccc(C(F)(F)F)nc2)CCCC1)c1ccccn1 [Example T-263]	≤ 1000	≤ 1000
C[C@H](NC(=O)c1ccc2c(c1)c1ccccc1c(=O)n2C1CCC(F)(F)CC1)c1ccccn1 [Example T-268]	≤ 1000	≤ 1000
C[C@H](NC(=O)c1ccc2c(c1)c1ccc(C#N)cc1c(=O)n2-c1ccc(C(F)(F)F)cc1)c1ccccn1 [Example T-320]	≤ 1000	≤ 1000

Further lines, results first:

IC50 (YAP-TEAD) [nM]	IC50 [1] [nM]	Structure (SMILES)
≤ 1000	≤ 1000	C/C=C/C(=O)Nc1ccc2c(c1)c1nn(C)cc1c(=O)n2-c1ccc(C(F)(F)F)cc1 [Example T-239]
≤ 1000	≤ 1000	C[C@H](NC(=O)c1ccc2c(c1)c1cscc1c(=O)n2-c1ccc(S(F)(F)(F)(F)F)cc1)c1ccccn1 [Example T-274]
≤ 1000	≤ 1000	C[C@H](NC(=O)c1ccc2c(c1)c1cncnc1c(=O)n2-c1ccc(C(F)(F)F)cc1)c1ccccn1 [Example T-333]
≤ 1000	≤ 1000	C[C@H](NC(=O)c1ccc2c(c1)c1ccccc1c(=O)n2-c1ccc(C(F)(F)F)cc1)c1cccc(N)n1 [Example T-399]
≤ 1000	≤ 1000	C[C@H](NC(=O)c1cnc2c(c1)c1sc(Cl)c(Br)c1c(=O)n2-c1ccc(C(F)(F)F)cc1)c1ccccn1 [Example T-405]
≤ 1000	≤ 1000	COCCOC(=O)Nc1ccc2c(c1)c1nn(C)cc1c(=O)n2-c1ccc(C(F)(F)F)cc1 [Example T-192]
≤ 1000	≤ 1000	CNS(=O)(=O)c1ccc2c(c1)c1nn(C)cc1c(=O)n2-c1ccc(F)c(F)c1 [Example T-68]
≤ 1000	≤ 1000	C[C@H](NC(=O)c1ccc2c(c1)c1nn(C)cc1c(=O)n2-c1ccc(S(F)(F)(F)(F)F)cc1)c1ccccn1 [Example T-227]
≤ 1000	≤ 1000	CNC(=O)c1ccc2c(c1)c1nn(C)cc1c(=O)n2-c1ccc(C(F)(F)F)cc1 [Example T-111]
≤ 1000	≤ 1000	C[C@H](NC(=O)c1cnc2c(c1)c1cc(C#N)ccc1c(=O)n2-c1ccc(C(F)(F)F)cc1)c1ccccn1 [Example T-410]
≤ 1000	≤ 1000	CN[S+]([O-])c1ccc2c(c1)c1ncn(CCOC)c1c(=O)n2-c1ccc(C(F)(F)F)cc1 (centres unmarked) [Example T-47]
≤ 1000	≤ 1000	C[C@H](NC(=O)c1ccc2c(c1)c1c(c(=O)n2-c2ccc(C(F)(F)F)cc2)CCC1)c1ccccn1 [Example T-249]
